Experimental findings from US6686209B2, “Reagents for detecting cannabinoids” (Lifepoint, Inc., priority 2001, dated 2004) are described below.

The subject of the test is antibodies against Δ^9-THC. The test is described as follows: Cross-reactivity by displacement of cannabinol-based tracer from immobilized antibody (continuous flow). The format is binding. The following applies: for MAX FI (mV): sample with 25 ng/mL of unlabeled substance, cannabinol-based tracer (FIG. 10) displaced, 0 ng/mL baseline 422; for percent cross-reactivity: 25 ng/mL. The protocol: The lower binding affinity of an antibody to a particular tracer may be measured by the percent cross-reactivity of the antibody to the tracer as compared to the analyte in a sample. For example, immobilized antibodies against Δ^9-THC were bound with the cannabinol-based tracer (shown in FIG. 10) similar to the methods as described in Example VII. Different samples containing 25 ng/mL of Δ^9-THC (unlabeled), Δ^8-THC (unlabeled), unlabeled 9-carboxy-Δ^9-THC (THCA), cannabidiol (unlabeled), or unlabeled cannabinol were flowed through different columns having the antibody-tracer complex to determine the amount of cross-reactivity. The amount of tracer displaced was then compared between the different samples.
Using Δ^9-THC as the standard (i.e., Δ^9-THC set at 100% cross-reactivity) (1602/1602)), 9-carboxy-Δ^9-THC has a percent cross-reactivity of about 540% (8700/1602), and cannabinol has a percent cross-reactivity of about 79% (1266/1602). If 9-carboxy-Δ^9-THC were used as the standard (i.e., 9-carboxy-Δ^9-THC set at 100% cross-reactivity (8700/8700)), then the percent cross-reactivity for cannabinol would be about 14.5% (1266/8700). If Δ^8-THC were used as a standard (i.e., A ^8-THC set at 100% cross-reactivity (1488/1488)), then the present cross-reactivity for cannabinol would be about 85% (1266/1488).

In the case of `C=C(C)[C@@H]1CCC(C)=C[C@H]1c1c(O)cc(CCCCC)cc1O` [Cannabidiol, cannabidiol], the “MAX FI (mV)” value amounted to 624 mV. Regarding `CCCCCc1cc(O)c2c(c1)OC(C)(C)c1ccc(C)cc1-2` [Cannabinol, 6,6,9-trimethyl-3-pentyl-6H-dibenzo[b,d]pyran-1-ol], the “MAX FI (mV)” value stood at 1266 mV. In addition, the percent cross-reactivity result (9-carboxy-Δ^9-THC as the standard (100%)) was “about 14.5%”. Besides, the percent cross-reactivity result (Δ^8-THC as the standard (100%)) is reported as “about 85%”. For the same molecule, the percent cross-reactivity result (Δ^9-THC as the standard (100%)) is given as “about 79%”.

With `CCCCCc1cc(O)c2c(c1)OC(C)(C)[C@@H]1CCC(C(=O)O)=C[C@@H]21` [THCA, 9-carboxy-Δ^9-THC], the “MAX FI (mV)” value was 8700 mV. Also, the percent cross-reactivity entry (Δ^9-THC as the standard (100%)) is “about 540%”. With `CCCCCc1cc(O)c2c(c1)OC(C)(C)[C@@H]1CC=C(C)C[C@@H]21` [Δ^8-THC], the “MAX FI (mV)” value was 1488 mV. The same measure, in the same setting: the figure for `CCCCCc1cc(O)c2c(c1)OC(C)(C)[C@@H]1CCC(C)=C[C@@H]21` [Δ^9-THC, Δ^9-tetrahydrocannabinol] is 1602 mV.
